{
  "source": "patent US20250230193A1",
  "about": "“CYCLIC COMPOUND HAVING SELECTIVE KRAS INHIBITORY EFFECT ON HRAS AND NRAS” (CHUGAI SEIYAKU KABUSHIKI KAISHA, priority 2022, published 2025)",
  "key": {"[1]": {"target": "GDP-bound NRAS wild-type protein (Homo sapiens, UniProt P01111)", "sequence (P01111 whole entry)": "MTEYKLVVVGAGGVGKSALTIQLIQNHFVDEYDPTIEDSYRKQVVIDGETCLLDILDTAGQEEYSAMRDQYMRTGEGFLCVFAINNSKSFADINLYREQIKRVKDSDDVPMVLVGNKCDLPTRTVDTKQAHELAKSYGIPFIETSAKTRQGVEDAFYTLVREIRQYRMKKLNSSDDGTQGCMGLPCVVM", "assay": "Binding to NRAS by surface plasmon resonance (SPR), Single Cycle Kinetics"}, "[2]": {"target": "GDP-bound HRAS wild-type protein (Homo sapiens, UniProt P01112)", "sequence (P01112 whole entry)": "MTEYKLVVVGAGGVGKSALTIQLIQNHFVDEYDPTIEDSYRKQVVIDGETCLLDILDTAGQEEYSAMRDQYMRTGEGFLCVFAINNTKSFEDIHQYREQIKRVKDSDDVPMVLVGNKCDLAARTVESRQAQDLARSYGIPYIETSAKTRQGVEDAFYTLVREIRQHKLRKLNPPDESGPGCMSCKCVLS", "assay": "Binding to HRAS by surface plasmon resonance (SPR), Single Cycle Kinetics"}, "[3]": {"conditions": "KD ratio, GDP-bound NRAS wild-type vs GDP-bound KRAS wild-type, SPR"}, "[4]": {"conditions": "KD ratio, GDP-bound HRAS wild-type vs GDP-bound KRAS wild-type, SPR"}, "[5]": {"conditions": "SPR, GDP-bound wild-type proteins"}},
  "data": [
    {"compound": "CCOC[C@H]1C(=O)N[C@@H]([C@@H](C)CC)C(=O)N(C)CC(=O)N(C)[C@H]2C/C=C\\CCN(C2=O)[C@@H](CC2CCC(F)(F)CC2)C(=O)N(C)CC(=O)N[C@@H](CCc2ccc(C(F)(F)F)c(Cl)c2)C(=O)N2C[C@H](OCC)C[C@H]2C(=O)NC2(CC(C)(C)C2)C(=O)N(C)[C@@H](C(CC)CC)C(=O)N(C)[C@H](C(=O)N(C)C)CC(=O)N1C", "note": "[PP2460]", "values": [
      {"measurement": "NRAS/KRAS (ratio of KD value with respect to NRAS to KD value with respect to KRAS)", "setting": "[1]; SPR, GDP-bound NRAS wild-type vs GDP-bound KRAS wild-type", "value": "A (a compound having 10 or more and less than 20 is denoted as A)"},
      {"measurement": "HRAS/KRAS (ratio of KD value with respect to HRAS to KD value with respect to KRAS)", "setting": "[2]; SPR, GDP-bound HRAS wild-type vs GDP-bound KRAS wild-type", "value": "A (a compound having 10 or more and less than 20 is denoted as A)"}
    ]},
    {"compound": "CCCN(C)C(=O)[C@@H]1CC(=O)N(C)[C@@H](C2CC2)C(=O)N[C@@H]([C@@H](C)CC)C(=O)N(C)CC(=O)N(C)[C@H]2C/C=C\\CCN(C2=O)[C@@H](Cc2ccc(C(F)(F)F)cc2)C(=O)N(C)CC(=O)N[C@@H](CCc2ccc(C(F)(F)F)c(OC)c2)C(=O)N2C[C@H](OCC)C[C@H]2C(=O)NC2(CC(C)(C)C2)C(=O)N(C)[C@@H](C2CCCC2)C(=O)N1C", "note": "[PP1983]", "values": [
      {"measurement": "NRAS/KRAS (ratio of KD value for NRAS to KD value for KRAS)", "setting": "[1]; [3]", "value": "AA (a compound having 20 or more is denoted as AA)"},
      {"measurement": "HRAS/KRAS (ratio of KD value for HRAS to KD value for KRAS)", "setting": "[2]; [4]", "value": "A (a compound having 10 or more and less than 20 is denoted as A)"}
    ]},
    {"compound": "CCC[C@H]1C(=O)N[C@@H]([C@@H](C)CC)C(=O)N2C[C@@H](OC)C[C@H]2C(=O)N(C)[C@H]2C/C=C\\CCN(C2=O)[C@@H](Cc2ccc(C)cc2)C(=O)N(C)CC(=O)N[C@@H](CCc2cc(F)c(C(F)(F)F)c(F)c2)C(=O)N2C[C@H](OCC)C[C@H]2C(=O)NC2(CCC2)C(=O)N(C)[C@@H](C2CCCC2)C(=O)N(C)[C@H](C(=O)N(C)C)CC(=O)N1C", "note": "[PP2550]", "values": [
      {"measurement": "NRAS/KRAS (ratio of KD value with respect to GDP-bound NRAS wild-type protein to KD value with respect to KRAS)", "setting": "[1]; class symbols", "value": "A (a compound having 10 or more and less than 20 is denoted as A)"},
      {"measurement": "HRAS/KRAS (ratio of KD value with respect to GDP-bound HRAS wild-type protein to KD value with respect to KRAS)", "setting": "[2]; class symbols", "value": "B (a compound having 3 or more and less than 10 is denoted as B)"}
    ]},
    {"compound": "CCO[C@@H]1C[C@H]2C(=O)NC3(CC(C)(C)C3)C(=O)N(C)[C@@H](C3CCCC3)C(=O)N(C)[C@H](C(=O)N(C)C)CC(=O)N(C)[C@H]3CCCCCc4ccc(cc4)C[C@@H](C(=O)N(C)CC(=O)N[C@@H](CCc4ccc(Cl)c(Cl)c4)C(=O)N2C1)N1CC/C=C\\C[C@@H](C1=O)N(C)C(=O)CN(C)C(=O)[C@H]([C@@H](C)CC)NC3=O", "note": "[PP3076]", "values": [
      {"measurement": "NRAS/KRAS (ratio of KD value with respect to GDP-bound NRAS wild-type protein to KD value with respect to KRAS)", "setting": "[1]; [5]", "value": "AA (a compound having 20 or more is denoted as AA)"},
      {"measurement": "HRAS/KRAS (ratio of KD value with respect to GDP-bound HRAS wild-type protein to KD value with respect to KRAS)", "setting": "[2]; [5]", "value": "A (a compound having 10 or more and less than 20 is denoted as A)"}
    ]},
    {"compound": "CCO[C@@H]1C[C@H]2C(=O)NC3(CCC3)C(=O)N(C)[C@@H](C3CCCC3)C(=O)N(C)[C@H](C(=O)N(C)C)CC(=O)N(C)[C@@H](CC)C(=O)N[C@@H]([C@@H](C)CC)C(=O)N3CC[C@H]3C(=O)N(C)[C@H]3CC(C)=CCN(C3=O)[C@@H](Cc3ccc(C(F)(F)F)cc3)C(=O)N(C)CC(=O)N[C@@H](CCc3cc(F)c(C(F)(F)F)c(F)c3)C(=O)N2C1", "note": "[PP1035]", "values": [
      {"measurement": "NRAS/KRAS (ratio of KD value with respect to NRAS to KD value with respect to KRAS)", "setting": "[1]; [3]", "value": "C (A compound having a KD ratio of 0.1 or more and less than 3 is denoted as C)"},
      {"measurement": "HRAS/KRAS (ratio of KD value with respect to HRAS to KD value with respect to KRAS)", "setting": "[2]; [4]", "value": "C (A compound having a KD ratio of 0.1 or more and less than 3 is denoted as C)"}
    ]},
    {"compound": "CCCO[C@@H]1C[C@H]2C(=O)NC3(CC(C)(C)C3)C(=O)N(C)[C@@H](C(CC)CC)C(=O)N(C)[C@H](C(=O)N(C)C)CC(=O)N(C)[C@H]3CCCc4ccc(cc4)C[C@@H](C(=O)N(C)CC(=O)N[C@@H](CCc4ccc(C(F)(F)F)c(OC)c4)C(=O)N2C1)N1CC/C=C\\C[C@@H](C1=O)N(C)C(=O)CN(C)C(=O)[C@H]([C@@H](C)CC)NC3=O", "note": "[PP3063]", "values": [
      {"measurement": "NRAS/KRAS (ratio of KD value with respect to GDP-bound NRAS wild-type protein to KD value with respect to KRAS)", "setting": "[1]; [5]", "value": "B (a compound having 3 or more and less than 10 is denoted as B)"},
      {"measurement": "HRAS/KRAS (ratio of KD value with respect to GDP-bound HRAS wild-type protein to KD value with respect to KRAS)", "setting": "[2]; [5]", "value": "B (a compound having 3 or more and less than 10 is denoted as B)"}
    ]}
  ]
}
